According to ChEMBL document CHEMBL4311969, “Polygala tenuifolia-Acori tatarinowii herbal pair as an inspiration for substituted cinnamic α-asaronol esters: Design, synthesis, anticonvulsant activity, and inhibition of lactate dehydrogenase study” (Eur J Med Chem, 2019):
Where “and” joins values, the source holds several entries; their conditions need not be identical. Equal values may be shown once. Calls of active or inactive are those of the source. No cut-off for these calls is given here.

Columns and labels:
Mus musculus [1] = assay: Anticonvulsant activity in Kunming mouse assessed as reduction in Sc3-MP-induced clonic seizure rate at 300 mg/kg, ip administered 0.5 hrs before Sc3-MP stimulation relative to control; format: functional; design: scale not given: the % may be the effect or the level left
Mus musculus [2] = assay: Anticonvulsant activity in Kunming mouse assessed as reduction in Sc3-MP-induced tonic seizure rate at 300 mg/kg, ip administered 0.5 hrs before Sc3-MP stimulation relative to control; format: functional; design: scale not given: the % may be the effect or the level left
Mus musculus [3] = assay: Anticonvulsant activity in Kunming mouse assessed as MES-induced hind limb extension at 100 mg/kg, ip administered 0. 5 to 2 hrs before MES stimulation; format: functional, organism-based
[4] = Neurotoxicity against Kunming mouse assessed as time remained in rod at 100 mg/kg, ip administered 0.5 to 2 hrs by rotarod test; format: toxicity, organism-based; conditions: in vivo
Mus musculus [5] = assay: Anticonvulsant activity in Kunming mouse assessed as MES-induced hind limb extension at 50 mg/kg, ip administered 0.5 to 4 hrs before MES stimulation relative to control; format: functional
Mus musculus [6] = assay: Anticonvulsant activity in Kunming mouse assessed as reduction in ScPTZ-induced seizure at 300 mg/kg, ip administered 0.25 to 2 hrs before ScPTZ stimulation relative to control; format: functional; design: scale not given: the % may be the effect or the level left
Mus musculus [7] = assay: Anticonvulsant activity in Kunming mouse assessed as reduction in ScPTZ-induced seizure at 100 mg/kg, ip administered 0.25 to 2 hrs before ScPTZ stimulation relative to control; format: functional
Mus musculus [8] = assay: Anticonvulsant activity in Kunming mouse assessed as reduction in ScPTZ-induced seizure at 100 mg/kg, ip administered 0.25 and 1 hrs before ScPTZ stimulation relative to control; format: functional; design: scale not given: the % may be the effect or the level left
Mus musculus [9] = assay: Anticonvulsant activity in Kunming mouse assessed as reduction in ScPTZ-induced clonic seizure at 300 mg/kg, ip administered 0.5 hrs before ScPTZ stimulation relative to control; format: functional; design: scale not given: the % may be the effect or the level left
Mus musculus [10] = assay: Anticonvulsant activity in Kunming mouse assessed as reduction in ScPTZ-induced clonic seizure at 100 mg/kg, ip administered 0.5 hrs before ScPTZ stimulation relative to control; format: functional; design: scale not given: the % may be the effect or the level left
Mus musculus [11] = assay: Anticonvulsant activity in Kunming mouse assessed as reduction in ScPTZ-induced tonic seizure rate at 300 mg/kg, ip administered 0.5 hrs before ScPTZ stimulation relative to control; format: functional; design: scale not given: the % may be the effect or the level left
Mus musculus [12] = assay: Anticonvulsant activity in Kunming mouse assessed as reduction in ScPTZ-induced tonic seizure rate at 100 mg/kg, ip administered 0.5 hrs before ScPTZ stimulation relative to control; format: functional; design: scale not given: the % may be the effect or the level left
Mus musculus [13] = assay: Anticonvulsant activity in Kunming mouse assessed as reduction in ScPTZ-induced mortality rate at 300 mg/kg, ip administered 0.5 hrs before ScPTZ stimulation relative to control; format: functional; design: scale not given: the % may be the effect or the level left
Mus musculus [14] = assay: Anticonvulsant activity in Kunming mouse assessed as reduction in Sc3-MP-induced seizure at 300 mg/kg, ip administered 0.25 and 1 hrs before Sc3-MP stimulation relative to control; format: functional, organism-based
Mus musculus [15] = assay: Anticonvulsant activity in Kunming mouse assessed as reduction in Sc3-MP-induced seizure at 300 mg/kg, ip administered 0.5 hrs before Sc3-MP stimulation relative to control; format: functional; design: scale not given: the % may be the effect or the level left
Mus musculus [16] = assay: Anticonvulsant activity in ip dosed Kunming mouse assessed as MES-induced hind limb extension administered 0.5 hrs before MES stimulation; format: functional
Mus musculus [17] = assay: Anticonvulsant activity in ip dosed Kunming mouse assessed as reduction in ScPTZ-induced seizure administered 0.5 hrs before ScPTZ stimulation; format: functional
Mus musculus [18] = assay: Anticonvulsant activity in Kunming mouse assessed as reduction in Sc3-MP-induced seizure ip dosed measured at 0.5 hrs before Sc3-MP stimulation; format: functional
Mus musculus [19] = assay: […] activity in ip dosed Kunming mouse assessed as reduction in formalin-induced paw licking administered 0.5 hrs before formalin stimulation; format: functional
[20] = Neurotoxicity against ip dosed Kunming mouse assessed as time remained in rod measured at 0.5 hrs by rotarod test; format: toxicity, organism-based; conditions: in vivo
[21] = Protective index, ratio of TD50 for neurotoxicity against ip dosed Kunming mouse assessed as time remained in rod measured at 0.5 hrs by rotarod test to ED50 for anticonvulsant activity in ip dosed Kunming mouse assessed as MES-induced hind limb extension administered 0.5 hrs; format: toxicity, organism-based; conditions: in vivo, read-out: PI
[22] = (§1) Protective index, ratio of TD50 for neurotoxicity against ip dosed Kunming mouse assessed as time remained in rod measured at 0.5 hrs by rotarod test to ED50 for anticonvulsant activity in ip dosed Kunming mouse assessed as reduction in ScPTZ-induced seizure administered 0.5 hrs before ScPTZ stimulation; format: toxicity, organism-based; conditions: in vivo, read-out: PI
[23] = as §1, with “Sc3-MP-induced” for “ScPTZ-induced”, “Sc3-MP” for “ScPTZ”; format: toxicity, organism-based; conditions: in vivo, read-out: PI
[24] = as §1, with “formalin-induced paw licking” for “ScPTZ-induced seizure”, “formalin” for “ScPTZ”; format: toxicity, organism-based; conditions: in vivo, read-out: PI
Homo sapiens [25] = species on record: Homo sapiens; assay: Inhibition of human LDH1 at 0.5 mM using sodium pyruvate as substrate by UV-VIS spectrophotometry method relative to control
Homo sapiens [26] = species on record: Homo sapiens; assay: Inhibition of human LDH5 at 0.5 mM using sodium pyruvate as substrate by UV-VIS spectrophotometry method relative to control
Mus musculus [27] = assay: Anticonvulsant activity in Kunming mouse assessed as MES-induced hind limb extension at 100 mg/kg, ip administered 0. 5 to 4 hrs before MES stimulation relative to control; format: functional
Mus musculus [28] = assay: Anticonvulsant activity in Kunming mouse assessed as MES-induced hind limb extension at 100 mg/kg, ip administered 3 hrs before MES stimulation; format: functional, organism-based
Mus musculus [29] = assay: Anticonvulsant activity in Kunming mouse assessed as reduction in ScPTZ-induced seizure at 100 mg/kg, ip administered 0.5 hrs before ScPTZ stimulation relative to control; format: functional; design: scale not given: the % may be the effect or the level left
Mus musculus [30] = assay: Anticonvulsant activity in Kunming mouse assessed as reduction in Sc3-MP-induced mortality rate at 300 mg/kg, ip administered 0.5 hrs before Sc3-MP stimulation relative to control; format: functional; design: scale not given: the % may be the effect or the level left
Homo sapiens [31] = species on record: Homo sapiens; assay: Inhibition of human LDH1 at 0.5 mM using sodium pyruvate as substrate measured for 60 sec for every 5 mins by LC/MS-MS analysis
Homo sapiens [32] = species on record: Homo sapiens; assay: Inhibition of human LDH5 at 0.5 mM using sodium pyruvate as substrate measured for 60 sec for every 5 mins by LC/MS-MS analysis
Mus musculus [33] = assay: Anticonvulsant activity in Kunming mouse assessed as MES-induced hind limb extension at 50 mg/kg, ip administered 0.5 and 2 hrs before MES stimulation relative to control; format: functional

For `COc1cc(OC)c(OC)cc1/C=C/COC(=O)/C=C/c1ccc(Cl)cc1`, the Activity (Mus musculus [1]) was 100%, the Activity (Mus musculus [2]) was 50% and the Activity (Mus musculus [3]) was “Active”. The Activity [4] was “Non-Toxic”, the Activity (Mus musculus [5]) was 50% and the Activity (Mus musculus [6]) was 50%. The Activity (Mus musculus [7]) was “inactive”, the Activity (Mus musculus [8]) was 75% and the Activity (Mus musculus [9]) was 100%. The Activity (Mus musculus [10]) was 100%, the Activity (Mus musculus [11]) was 25% and the Activity (Mus musculus [12]) was 100%. For the same molecule, the Activity (Mus musculus [13]) was 0%, the Activity (Mus musculus [14]) was “Active” and the Activity (Mus musculus [15]) was 50%. The ED50 (Mus musculus [16]) was 137 µmol/kg and 53.4 mg/kg, the ED50 (Mus musculus [17]) was 142 mg/kg and 364 µmol/kg and the ED50 (Mus musculus [18]) was > 200 mg/kg and > 514 µmol/kg. For the same molecule, the ED50 (Mus musculus [19]) was 108 mg/kg and 278 µmol/kg, the TD50 at 0.5 h [20] was > 2570 µmol/kg and > 1000 mg/kg and the selectivity ratio at 0.5 h [21] was greater than 18.7. For the same molecule, the selectivity ratio at 0.5 h [22] was greater than 7.1, the selectivity ratio at 0.5 h [23] was greater than 6.2 and the selectivity ratio at 0.5 h [24] was greater than 9.3. For the same molecule, the inhibition (Homo sapiens [25]) was less than 5%, the inhibition (Homo sapiens [26]) was less than 9% and the Activity (Mus musculus [27]) was 25 - 100%.
With `COc1cc(OC)c(/C=C/C(=O)OC/C=C/c2cc(OC)c(OC)cc2OC)c(OC)c1` the Activity (Mus musculus [1]) was 100%, the Activity (Mus musculus [2]) was 75% and the Activity (Mus musculus [3]) was “Active”. The Activity (Mus musculus [28]) was “Active”, the Activity [4] was “Non-Toxic” and the Activity (Mus musculus [5]) was 50%. For the same molecule, the Activity (Mus musculus [6]) was 50%, the Activity (Mus musculus [7]) was “inactive” and the Activity (Mus musculus [29]) was 100%. The Activity (Mus musculus [9]) was 100%, the Activity (Mus musculus [10]) was 100% and the Activity (Mus musculus [11]) was 0%. The Activity (Mus musculus [12]) was 100%, the Activity (Mus musculus [30]) was 25% and the ED50 (Mus musculus [16]) was 157 µmol/kg and 69.8 mg/kg. For the same molecule, the ED50 (Mus musculus [17]) was 212 mg/kg and 476 µmol/kg, the ED50 (Mus musculus [18]) was > 300 mg/kg and > 675 µmol/kg and the ED50 (Mus musculus [19]) was 99 mg/kg and 223 µmol/kg. For the same molecule, the TD50 at 0.5 h [20] was > 2250 µmol/kg and > 1000 mg/kg, the selectivity ratio at 0.5 h [21] was greater than 14.3 and the selectivity ratio at 0.5 h [22] was greater than 4.7. The selectivity ratio at 0.5 h [23] was 3.3, the selectivity ratio at 0.5 h [24] was greater than 10.1 and the inhibition (Homo sapiens [31]) was “Active”. The inhibition (Homo sapiens [32]) was “Active” and the Activity (Mus musculus [27]) was 25 - 100%.
With `COc1cc(OC)c(OC)cc1/C=C/COC(=O)/C=C/c1cccc(Br)c1` the Activity (Mus musculus [1]) was 100%, the Activity (Mus musculus [2]) was 50% and the Activity (Mus musculus [3]) was “Active”. The Activity (Mus musculus [28]) was “Active”, the Activity [4] was “Non-Toxic” and the Activity (Mus musculus [33]) was “inactive”. For the same molecule, the Activity (Mus musculus [6]) was 50%, the Activity (Mus musculus [7]) was “inactive” and the Activity (Mus musculus [8]) was 75%. The Activity (Mus musculus [9]) was 100%, the Activity (Mus musculus [10]) was 100% and the Activity (Mus musculus [11]) was 25%. The Activity (Mus musculus [12]) was 100%, the Activity (Mus musculus [13]) was 0% and the Activity (Mus musculus [14]) was “Active”. The Activity (Mus musculus [15]) was 50%, the Activity (Mus musculus [30]) was 0% and the ED50 (Mus musculus [16]) was 175 µmol/kg and 75.7 mg/kg. For the same molecule, the ED50 (Mus musculus [17]) was > 200 mg/kg and > 462 µmol/kg, the ED50 (Mus musculus [18]) was 215 mg/kg and 497 µmol/kg and the ED50 (Mus musculus [19]) was 113 mg/kg and 260 µmol/kg. For the same molecule, the TD50 at 0.5 h [20] was > 2310 µmol/kg and > 1000 mg/kg, the selectivity ratio at 0.5 h [21] was greater than 13.2 and the selectivity ratio at 0.5 h [22] was 5. It also gave a selectivity ratio at 0.5 h [23] greater than 4.6, a selectivity ratio at 0.5 h [24] greater than 8.9 and an inhibition (Homo sapiens [25]) of less than 5%. The inhibition (Homo sapiens [26]) was less than 9% and the Activity (Mus musculus [27]) was 25 - 100%.
